# Laboratory results from patent publication US11464859B2 (priority 2005, dated 2022).
# Entries after “also recorded” stand apart in the source; their conditions may differ.
# Legend:
# [1] = test system: acute promyelocytic leukaemia; conditions: cited from earlier work; for efficacy and side effects compared with intravenous arsenic trioxide: oral, pilot study, patients with acute promyelocytic leukaemia, preliminary results
# [2] = test system: many different cancer cell lines; conditions: cited from earlier work
# [3] = cited from earlier work
# [4] = test system: human tumour xenografts (renal cell carcinoma RXF 944LX, mammary cancer MAXF 401)
# [5] = test system: telomeres of human cancer cells; format: cell-based; conditions: sodium salt
# telomerase = telomerase (Homo sapiens, UniProt O14746); format: biochemical; conditions: sodium salt
# [6] = test system: prostate and/or urogenital cancer and bone metastasis; conditions: human, in vivo
# [7] = test system: panel of 43 human tumour cell lines
# [8] = in vivo
# [9] = in vivo; remark: listed apart in the source
# [10] = human, in vivo
# telomerase, sequence (O14746 whole entry): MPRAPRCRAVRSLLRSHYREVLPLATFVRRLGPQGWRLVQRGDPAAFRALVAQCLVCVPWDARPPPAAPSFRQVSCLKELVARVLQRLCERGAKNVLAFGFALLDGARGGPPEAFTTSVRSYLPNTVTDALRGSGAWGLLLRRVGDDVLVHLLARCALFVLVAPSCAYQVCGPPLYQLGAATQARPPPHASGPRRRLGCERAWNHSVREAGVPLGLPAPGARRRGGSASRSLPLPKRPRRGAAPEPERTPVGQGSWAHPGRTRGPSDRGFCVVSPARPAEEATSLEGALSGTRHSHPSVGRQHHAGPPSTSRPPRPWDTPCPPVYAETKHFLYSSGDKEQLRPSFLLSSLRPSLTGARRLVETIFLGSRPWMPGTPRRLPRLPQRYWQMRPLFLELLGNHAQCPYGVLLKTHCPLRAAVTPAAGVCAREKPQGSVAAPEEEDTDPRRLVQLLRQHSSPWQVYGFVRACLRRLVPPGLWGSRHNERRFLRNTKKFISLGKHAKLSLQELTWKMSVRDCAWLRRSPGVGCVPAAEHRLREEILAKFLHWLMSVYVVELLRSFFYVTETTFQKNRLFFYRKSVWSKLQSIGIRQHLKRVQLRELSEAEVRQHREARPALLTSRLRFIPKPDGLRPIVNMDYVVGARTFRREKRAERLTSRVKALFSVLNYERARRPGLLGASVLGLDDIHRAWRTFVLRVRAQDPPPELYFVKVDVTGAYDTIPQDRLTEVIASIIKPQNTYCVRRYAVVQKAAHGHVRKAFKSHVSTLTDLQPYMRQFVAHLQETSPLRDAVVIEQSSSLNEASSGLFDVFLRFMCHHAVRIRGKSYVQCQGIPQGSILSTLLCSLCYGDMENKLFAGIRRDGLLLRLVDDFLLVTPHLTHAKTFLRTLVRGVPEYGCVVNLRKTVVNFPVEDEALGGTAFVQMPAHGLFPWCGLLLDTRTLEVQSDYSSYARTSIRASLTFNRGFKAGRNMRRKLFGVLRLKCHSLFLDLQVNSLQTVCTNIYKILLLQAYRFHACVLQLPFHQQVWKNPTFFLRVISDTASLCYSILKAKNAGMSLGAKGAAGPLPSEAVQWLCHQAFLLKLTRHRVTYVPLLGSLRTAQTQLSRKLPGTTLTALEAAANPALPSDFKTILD
compound,measurement,setting,value
S1[As]2S[As]3S[As]2S[As]13 [tetra-arsenic tetrasulphide],efficacy and side effects compared with intravenous arsenic trioxide,[1],The same was noted
arsenic trioxide,clinical response,"[1]; daily intravenous administration alone, newly diagnosed and relapsed acute promyelocytic leukaemia",complete responses in a large majority of patients
same,efficacy and side effects compared with intravenous arsenic trioxide,[1],comparable
same,effect on growth and apoptosis,[2],inhibits growth and promotes apoptosis
same,"incidence of the listed adverse events (fatigue, fever, oedema, chest pain, nausea, ECG abnormalities etc.)",[3]; patients treated with arsenic trioxide,≥ 10 % of patients
same,effect on QT interval,[3]; patients,prolong the QT and QT interval corrected for rate (QTc)
arsenous acid sodium salt,anti-tumour activity in a human tumour model in vivo,[4],showed anti-tumour activity
same,activity in subcutaneously transplanted human tumour xenografts,[4]; in vivo,borderline active in 2/7
same,efficacy by schedule,[4]; in vivo,better
same,effect on telomeres,[5],"capable of shortening the telomeres of human cancer cells; also recorded: capable of shortening telomeres of human cancer cells, inducing cellular senescence and chromosomal abnormalities"
same,inhibition of telomerase activity,telomerase,doesn't inhibit telomerase activity; also recorded: does not directly inhibit the telomerase activity
same,"PSA levels and tumour size, overall",[6],a reduction in their PSA levels and tumour size
same,"change in PSA levels, judgement",[6],clinically significant change
same,"clinical response, overall",[6],Most patients showed at least a partial response
same,decrease in tumour activity,[6],99.15%
same,further reduction in tumour activity,[6],67.56%
same,further tumour activity reduction,[6],40.32%
same,quality of life,[6],strongly ameliorated
same,IC50,[7],600 nM
same,combination effect,[7],additive effects
same,potency among three arsenic compounds,[7],most potent
same,potency relative to arsenic trioxide,[7],at least 15 fold
same,absorption,[8],rapidly absorbed
same,persistence in plasma,[8],remained in the plasma for prolonged periods
same,bioavailability,[8]; po,approximately 100%
same,main target organs of toxicity,[9],bone marrow and lymphoid organs
same,"change in ECG activity, audiometry or neurological examinations",[10],no change
same,disturbance of patients' well-being feeling,[10],did not cause any disturbance
same,glucose levels,[10],always appeared elevated
same,hemoglobin concentration at end,[10],11.1
same,hemoglobin concentration at start,[10],10.0
same,"liver transaminases sGOT, sGPT and sGGT",[10],reversible increase
same,sGGT elevation,[10],worsened
same,sGGT elevation and thrombocytosis,[10],remained unchanged
same,sGPT,[10],reversible and slight increase
same,triglycerides and cholesterol level,[10],unchanged
same,occurrence of the adverse events known for arsenic trioxide,[10]; po,none of these adverse events have been observed
